Data on 16 compounds can be found in US20160251332A1, “Herbicidal Compounds” (SYNGENTA PARTICIPATIONS AG, priority 2013, published 2016).

Format in all cases: in vivo
Test [1] deals with Amaranthus retroflexus. As to the kind of experiment: Pre-emergence herbicidal activity, AMARE. The conditions noted are these: Application pre-emergence, 1000 g/Ha, evaluated after 13 days, scale 0-5. How it is done: (§1) Seeds of a variety of test species were sown in standard soil in pots. After cultivation for one day (pre-emergence) under controlled conditions in a glasshouse (at 24/16° C., day/night; 14 hours light; 65% humidity), the plants were sprayed with an aqueous spray solution derived from the formulation of the technical active ingredient in acetone/water (50:50) solution containing 0.5% Tween 20 (polyoxyethelyene sorbitan monolaurate, CAS RN 9005-64-5). The test plants were then grown in a glasshouse under controlled conditions (at 24/16° C., day/night; 14 hours light; 65% humidity) and watered twice daily. After 13 days, the test was evaluated (5=total damage to plant; 0=no damage to plant).

The test system of test [2] is Echinochloa crus-galli. Briefly: Pre-emergence herbicidal activity, ECHCG. To be noted: Application pre-emergence, 1000 g/Ha, evaluated after 13 days, scale 0-5. The protocol: as §1
For test [3], the system named is Abutilon theophrasti. Briefly: Pre-emergence herbicidal activity, ABUTH. To be noted: Application pre-emergence, 1000 g/Ha, evaluated after 13 days, scale 0-5. How it is done:
as §1

Test [4] deals with Setaria faberi. As to the kind of experiment: Pre-emergence herbicidal activity, SETFA. To be noted: Application pre-emergence, 1000 g/Ha, evaluated after 13 days, scale 0-5. How it is done:
as §1

The test system of test [5] is Zea mays. Briefly: Pre-emergence herbicidal activity, ZEAMX. To be noted: Application pre-emergence, 1000 g/Ha, evaluated after 13 days, scale 0-5. The protocol: as §1
Test [6] has as its system Amaranthus retroflexus. Briefly: Post-emergence herbicidal activity, AMARE. The conditions noted are these: Application post-emergence, 1000 g/Ha, evaluated after 13 days, scale 0-5. How it is done: (§2) Seeds of a variety of test species were sown in standard soil in pots. After 8 days cultivation (post-emergence) under controlled conditions in a glasshouse (at 24/16° C., day/night; 14 hours light; 65% humidity), the plants were sprayed with an aqueous spray solution derived from the formulation of the technical active ingredient in acetone/water (50:50) solution containing 0.5% Tween 20 (polyoxyethelyene sorbitan monolaurate, CAS RN 9005-64-5). The test plants were then grown in a glasshouse under controlled conditions (at 24/16° C., day/night; 14 hours light; 65% humidity) and watered twice daily. After 13 days, the test was evaluated (5=total damage to plant; 0=no damage to plant).

Test [7] deals with Abutilon theophrasti. Briefly: Post-emergence herbicidal activity, ABUTH. The conditions noted are these: Application post-emergence, 1000 g/Ha, evaluated after 13 days, scale 0-5. The protocol: as §2
Test [8] concerns Setaria faberi. As to the kind of experiment: Post-emergence herbicidal activity, SETFA. To be noted: Application post-emergence, 1000 g/Ha, evaluated after 13 days, scale 0-5. The protocol: as §2
Test [9] relates to Echinochloa crus-galli. Briefly: Post-emergence herbicidal activity, ECHCG. The conditions noted are these: Application post-emergence, 1000 g/Ha, evaluated after 13 days, scale 0-5. The protocol:
as §2

The test system of test [10] is Zea mays. Briefly: Post-emergence herbicidal activity, ZEAMX. To be noted: Application post-emergence, 1000 g/Ha, evaluated after 13 days, scale 0-5. The protocol:
as §2

For the compound `CN1CC(O)N(c2cc(C(F)(F)F)c(-c3ccc(N4CCOCC4)nc3)cn2)C1=O` (stereo not shown) [Compound A31], the values for the AMARE damage score in test [1] and in [6] were 2 and 5, respectively. Moreover, the values for the ECHCG damage score in test [2] and in [9] were 0 and 4, respectively. Moreover, the results for the ABUTH damage score in test [3] and in test [7] were 2 and 5, respectively. The SETFA damage score in [4] is 2; in test [8] it was 5. Further, the figures for the ZEAMX damage score in test [5] and in test [10] were 0 and 2, respectively.
For the compound `CN1CC(O)N(c2cc(C(F)(F)F)c(-c3cnc(C#N)nc3)cn2)C1=O` (stereo not shown) [Compound A27], the AMARE damage score in test [1] and in test [6] was 5 in each case. The ECHCG damage score came out at 3 in test [2] and 5 in [9]. The ABUTH damage score in test [3] and in test [7] was 5 throughout. In addition, the results for the SETFA damage score in [4] and in test [8] were 2 and 3, respectively. Also, the ZEAMX damage score in [5] is reported as 1; in [10] it was 3.
As to `CN1CC(O)N(c2cc(C(F)F)ccn2)C1=O` (stereo not shown) [Compound A44], the AMARE damage score in test [1] and in [6] was 5 throughout. Further, the figures for the ECHCG damage score in test [2] and in [9] were 4 and 5, respectively. For the same compound, the ABUTH damage score in test [3] and in [7] was 5 throughout. The SETFA damage score in [4] and in test [8] was 5 in each case. Besides, the ZEAMX damage score amounted to 2 in [5] and 4 in [10].
As to `COCCOCc1cnc(N2C(=O)N(C)CC2O)cc1C(F)(F)F` (stereo not shown) [Compound A52], the AMARE damage score in test [1] and in [6] was 5 in each case. In addition, the ECHCG damage score in test [2] and in [9] was 5 in each case. The ABUTH damage score in test [3] and in [7] was 5 in each case. In addition, the SETFA damage score in test [4] and in [8] was 5 each time. Also, the ZEAMX damage score in [5] is reported as 4; in [10], 5.
Turning to `COc1ccc(-c2cnc(N3C(=O)N(C)CC3O)cc2C(F)(F)F)c(OC)n1` (stereo not shown) [Compound A25], the AMARE damage score in test [1] and in [6] was 5 throughout. In addition, the ECHCG damage score in test [2] and in test [9] was 5 throughout. For the same compound, the ABUTH damage score in [3] and in test [7] was 5 throughout. Also, the SETFA damage score in test [4] turned out to be 3; in test [8] it was 5. In addition, the ZEAMX damage score in test [5] and in [10] was 2 each time.
For `CN1CC(O)N(c2cc(C(F)(F)F)c(-c3ccc(F)nc3)cn2)C1=O` (stereo not shown) [Compound A32], the AMARE damage score in test [1] and in [6] was 5 each time. The ECHCG damage score in [2] and in [9] was 5 each time. Besides, the ABUTH damage score in test [3] and in test [7] was 5 throughout. The SETFA damage score in test [4] and in [8] was 5 each time. Further, the ZEAMX damage score in [5] was found to be 3; in test [10] it was 5.
As to `CN1CC(O)N(c2cc(C(F)(F)F)c(-c3cncc(Cl)c3)cn2)C1=O` (stereo not shown) [Compound A22], the AMARE damage score in test [1] and in [6] was 5 in each case. The ECHCG damage score in test [2] and in [9] was 5 throughout. Moreover, the ABUTH damage score in [3] and in test [7] was 5 throughout. The SETFA damage score in test [4] and in test [8] was 5 each time. In addition, the ZEAMX damage score in test [5] is given as 3; in [10], 5.
For `C=Cc1cnc(N2C(=O)N(C)CC2O)cc1C(F)(F)F` (stereo not shown) [Compound A41], the AMARE damage score in test [1] and in [6] was 5 each time. Moreover, the results for the ECHCG damage score in test [2] and in test [9] were 4 and 5, respectively. Moreover, the ABUTH damage score in test [3] turned out to be 4; in [7], 5. The SETFA damage score in test [4] worked out at 4; in test [8] it was 5. Moreover, the ZEAMX damage score in [5] and in test [10] was 2 throughout.
Regarding `CN1CC(O)N(c2cc(C(F)(F)C(F)(F)F)ccn2)C1=O` (stereo not shown) [Compound A48], the AMARE damage score in test [1] and in [6] was 5 in each case. Also, the ECHCG damage score in test [2] is 4; in [9], 5. Moreover, the ABUTH damage score in test [3] and in test [7] was 5 each time. For the same compound, the SETFA damage score in [4] and in [8] was 5 throughout. The ZEAMX damage score in [5] was 2; in [10] it was 3.
As to `CN1CC(O)N(c2cc(C(F)(F)F)c(C(=O)NC(C)(C)C)cn2)C1=O` (stereo not shown) [Compound A43], the AMARE damage score in [1] and in test [6] was 5 each time. In addition, the ECHCG damage score in test [2] and in [9] was 5 in each case. Besides, the ABUTH damage score in test [3] and in test [7] was 5 each time. Besides, the SETFA damage score in [4] and in test [8] was 5 each time. Moreover, the results for the ZEAMX damage score in [5] and in test [10] were 2 and 5, respectively.
With `COCc1cnc(N2C(=O)N(C)CC2O)cc1C(F)(F)F` (stereo not shown) [Compound A51], the AMARE damage score in [1] and in test [6] was 5 each time. The ECHCG damage score in [2] and in test [9] was 5 each time. The ABUTH damage score in test [3] and in test [7] was 5 in each case. Moreover, the SETFA damage score in [4] and in test [8] was 5 each time. Besides, the ZEAMX damage score in [5] and in test [10] was 3 throughout.
Consider `Cc1ccc(-c2cnc(N3C(=O)N(C)CC3O)cc2C(F)(F)F)cn1` (stereo not shown) [Compound A20], for which the AMARE damage score in test [1] and in test [6] was 5 throughout. Further, the ECHCG damage score in [2] and in test [9] was 5 throughout. Moreover, the ABUTH damage score in test [3] and in [7] was 5 throughout. The SETFA damage score in test [4] and in test [8] was 5 each time. The ZEAMX damage score in [5] came out at 3; in test [10] it was 4.
For `CN1CC(O)N(c2cc(C(F)(F)F)c(-c3cnn(C)c3)cn2)C1=O` (stereo not shown) [Compound A28], the AMARE damage score in test [1] and in [6] was 5 in each case. Also, the ECHCG damage score in [2] and in test [9] was 5 each time. The ABUTH damage score in test [3] and in test [7] was 5 each time. In addition, the SETFA damage score is 4 in test [4] and 5 in test [8]. The ZEAMX damage score in [5] is given as 3; in test [10], 5.
As to `COc1cncc(-c2cnc(N3C(=O)N(C)CC3O)cc2C(F)(F)F)c1` (stereo not shown) [Compound A33], the AMARE damage score in test [1] and in test [6] was 5 each time. Besides, the ECHCG damage score in test [2] is on record as 4; in [9], 5. For the same compound, the ABUTH damage score in test [3] and in test [7] was 5 each time. Also, the values for the SETFA damage score in [4] and in test [8] were 3 and 5, respectively. Besides, the ZEAMX damage score in [5] is given as 2; in test [10], 4.
Turning to `COC(C)(C)c1ccnc(N2C(=O)N(C)CC2O)c1` (stereo not shown) [Compound A49], the AMARE damage score in test [1] and in [6] was 5 each time. The ECHCG damage score in [2] and in [9] was 5 each time. The ABUTH damage score in test [3] and in [7] was 5 each time. Moreover, the SETFA damage score in [4] and in test [8] was 5 throughout. Moreover, the ZEAMX damage score came out at 2 in [5] and 3 in test [10].
For `CN1CC(O)N(c2cc(C(F)(F)F)c(NC(=O)C(C)(C)C)cn2)C1=O` (stereo not shown) [Compound A42], the AMARE damage score in test [1] and in test [6] was 5 throughout. The ECHCG damage score in test [2] and in test [9] was 5 throughout. Moreover, the ABUTH damage score in test [3] and in test [7] was 5 in each case. For the same compound, the SETFA damage score in test [4] and in test [8] was 5 in each case. Also, the ZEAMX damage score in test [5] was determined as 3; in test [10] it was 5.
